Laboratory results taken from patent US20050187196A1, “Treatment of attention disorders” (Saegis Pharmaceuticals, Inc., priority 2004, published 2005).

Key:
[1] = system: wildtype mice (C3H/HeSNJ); test: Open field test, wildtype mice; format: in vivo, mouse; conditions: for locomotor activity of wildtype controls: final 30 min
Text: (§1) Male and female mice heterozygous for the coloboma spontaneous mutation (C3H/HeSnJ-Cm/J) and wild type (C3H/HeSNJ) mice from Jackson Laboratories (Bar Harbor, Me.) were used in this study. Upon receipt, mice were assigned unique identification numbers (tail marked) and were housed in polycarbonate cages with filter tops. All mice were acclimated to the colony room for at least two weeks prior to testing. During the period of acclimation, mice were examined on a regular basis, handled, and weighed to assure adequate health and suitability. Mice were maintained on a 12/12 light/dark cycle. Chow and water were provided ad libitum for the duration of the study. In each test, animals were randomly assigned across treatment groups and balanced by age and by gender. Animals were not disturbed between test days.
(§2) The open field test (OF) is used to assess both anxiety-like behavior and motor activity. The open field chambers are Plexiglas square chambers (27.3×27.3×20.3 cm; Med Associates Inc., St Albans, Vt.) surrounded by infrared photobeam sources (16×16×16). The enclosure was configured to split the open field into a center and periphery zone and the photocell beams were set to measure activity in the center and in the periphery of the OF chambers. Animals having higher levels of anxiety or lower levels of activity tend to stay in the corners of the OF enclosures. On the other hand, mice that have high levels of activity and low levels of anxiety tend to spend more time in the center of the enclosure. Distance traveled is measured from consecutive beam breaks. Measures of peripheral or central distance covered during locomotion were used as an index of activity.
ABPA (0.3, 3 and 30 mg/kg) and atomoxetine (0.1 mg/kg) were dissolved in saline and administered i.p. at the injection volume of 10 ml/kg. Mice were pretreated with saline, ABPA, or atomoxetine for 30 min, after which their behavior was recorded in the OF chambers for a 60-min test session. At the end of each open field test session the OF chambers were thoroughly cleaned with Clorox wipes. Mice were returned to their home cage after testing and then to the colony room. Mice were retested every week. […] Data were analyzed by analysis of variance (ANOVA), followed by Fisher PLSD post-hoc analysis when appropriate. […]
Since the effects of all drugs reached a stable response by 20-30 min following the start of the experiment, the data was analyzed in 2 time periods: 1) total 60 min test session and 2) the last 30 min of the test session. The quantified data over the final 30 min time period are presented. […] As measured by total distance traveled, the coloboma mice had roughly 6- to 10-fold higher saline-induced activity compared to the wildtype mice (11,246±3213 centimeters vs. 1035±252 centimeters, FIGS. 3A and 3B).

[2] = system: coloboma mutant mice (Cm/+); test: Open field test, coloboma mutant mice; format: in vivo, mouse; conditions: parallel experiments
[3] = system: coloboma mice (Cm/+); conditions: open field test; d-amphetamine at low doses; cited from earlier work
[4] = system: wildtype mice; conditions: d-amphetamine at the same dose as in coloboma mice; cited from earlier work
[5] = system: dopamine (DA) neurons in the ventral tegmental area (VTA); conditions: systemic administration; cited from earlier work
[6] = system: striatal dopamine release; conditions: administration in the substantia nigra pars reticulata (SNr); cited from earlier work
[7] = system: patients diagnosed with adult ADHD; conditions: cited from earlier work
[8] = system: coloboma mutant mice (Cm/+); test: Open field test, coloboma mutant mice; format: in vivo, mouse; conditions: for frequency of zone crossings / total distance traveled / locomotor activity: final 30 min
Text: as §1, §2
ABPA (0.3, 3 and 30 mg/kg) and atomoxetine (0.1 mg/kg) were dissolved in saline and administered i.p. at the injection volume of 10 ml/kg. Mice were pretreated with saline, ABPA, or atomoxetine for 30 min, after which their behavior was recorded in the OF chambers for a 60-min test session. At the end of each open field test session the OF chambers were thoroughly cleaned with Clorox wipes. Mice were returned to their home cage after testing and then to the colony room. Mice were retested every week. The washout period between tests ranged from 3-7 days. Data were analyzed by analysis of variance (ANOVA), followed by Fisher PLSD post-hoc analysis when appropriate. An effect was considered significant if p<0.05. Outliers that fell above and below two standard deviations away from the mean were removed from the final analysis.
Since the effects of all drugs reached a stable response by 20-30 min following the start of the experiment, the data was analyzed in 2 time periods: 1) total 60 min test session and 2) the last 30 min of the test session. The quantified data over the final 30 min time period are presented. Repeated measure ANOVA found a significant genotype and drug interaction over both time periods. As measured by total distance traveled, the coloboma mice had roughly 6- to 10-fold higher saline-induced activity compared to the wildtype mice (11,246±3213 centimeters vs. 1035±252 centimeters, FIGS. 3A and 3B).

[9] = system: patients with mild cognitive impairment (MCI); test: Five Choice Reaction Time test (CANTAB), clinical trial; format: in vivo, human; conditions: 600 mg tid
Description: (§3) A clinical trial was initiated to determine the effect of the GABAB receptor antagonist, ABPA, on specific tests of cognition in non-demented older individuals with diminished memory function who met prospective criteria for mild cognitive impairment (MCI). Patients aged 60-85 with MCI enrolled in this double-blind, randomized trial. Patients were randomized to ABPA (600 mg tid) or placebo for 8 weeks. Verbal, paper and computer tests of memory and cognition were made by trained assessors at baseline (before administration of ABPA or placebo) and after 2, 5, and 8 weeks of treatment. Among these were selected tests from the Cambridge Neuropsychological Test Automated Battery (CANTAB), a computerized battery of tests for neuropsychological evaluation (Robbins et al., 1994, “Cambridge Neuropsychological Test Automated Battery (CANTAB): A factor analytic study of a large sample of normal elderly volunteers,” Dementia 5:266-281). Tests assessing memory, attention and psychomotor speed were administered to the patient by a neuropsychologist or equivalent via a computer with a touch screen, thus testing the individual's cognitive performance rather than ability to use a computer. CANTAB tests have been proven to be highly sensitive and specific in differentiating patients with a number of neurological conditions from each other and from normal controls.
110 patients were randomized; 75 were administered ABPA and 35 were administered placebo (56% men; mean age: 74 years).
The Five Choice Reaction Time test measures the speed of response to the appearance of a visual stimulus. Patients rested their hand on a press-pad placed on the desk directly in front of the computer screen, holding down the press-pad until a brief yellow flash appeared in 1 of the 5 circles located at various positions around the screen. […] The computer recorded 2 measures of response speed: reaction time, which was the time taken to lift the hand from the press-pad, and movement time, which was the latency from press-pad release to the time that the screen was touched. […]

[10] = system: patients with mild cognitive impairment (MCI); test: Rapid Visual Information Processing (RVIP) test (CANTAB), clinical trial; format: in vivo, human; conditions: 600 mg tid
Description: A clinical trial was initiated to determine the effect of the GABAB receptor antagonist, ABPA, on specific tests of cognition in non-demented older individuals with diminished memory function who met prospective criteria for mild cognitive impairment (MCI). Patients aged 60-85 with MCI enrolled in this double-blind, randomized trial. Patients were randomized to ABPA (600 mg tid) or placebo for 8 weeks. Verbal, paper and computer tests of memory and cognition were made by trained assessors at baseline (before administration of ABPA or placebo) and after 2, 5, and 8 weeks of treatment. Among these were selected tests from the Cambridge Neuropsychological Test Automated Battery (CANTAB), a computerized battery of tests for neuropsychological evaluation (Robbins et al., 1994, “Cambridge Neuropsychological Test Automated Battery (CANTAB): A factor analytic study of a large sample of normal elderly volunteers,” Dementia 5:266-281). […]
The Rapid Visual Information Processing (RVIP) test is a test of sustained attention with a small working memory component. […] Responses were recorded with a button press. Reaction time, or mean hit latency, for all correct responses was recorded, as were additional signal detection measures (e.g., total hits, total misses and total false alarms). […]

[11] = system: patients with MCI; test: CANTAB tests of psychomotor speed, clinical trials; format: in vivo, human
Description: as §3

[12] = system: GABAC receptor; conditions: reported in U.S. Pat. No. 6,632,806; cited from earlier work

## C[C@H](N)Cc1ccccc1 [d-amphetamine, dextro-amphetamine]
[1]; parallel experiments
  activity in control (wildtype) mice: did increase activity
  rearing frequency in control (wildtype) mice: no effect on rearing frequency
[2]; 0.5 mg/kg
  activity in coloboma mice: did not reduce activity
[2]; 1 mg/kg
  activity in coloboma mice: did not reduce activity
[2]; 4 mg/kg
  activity in coloboma mice: did not reduce activity
  frequency of rearing: did reduce the frequency of rearing
[3]
  activity levels / hyperactivity of coloboma mice: reduced
[4]
  activity levels of wildtype mice: profound increases in activity

## CCOC(OCC)P(=O)(O)CCCN [CGP 35348]
[5]
  burst firing of VTA dopamine neurons: long-lasting increase in burst firing

## NCCCCC(=O)O [5-AVA]
[6]
  dopamine release in the striatum: increase dopamine release in the striatum

## COC(=O)C(c1ccccc1)C1CCCCN1 (stereo not drawn) [methylphenidate]
[7]
  performance in the RVIP test: improve performance in the RVIP test
[3]
  activity levels / hyperactivity of coloboma mice: failed to normalize the hyperactivity
[4]
  activity levels of wildtype mice: increasing locomotor activity

## NCC(CC(=O)O)c1ccc(Cl)cc1 (stereo not drawn) [baclofen]
[6]
  dopamine release in the striatum: decrease in striatal dopamine

## CNCC[C@@H](Oc1ccccc1C)c1ccccc1 [atomoxetine]
[8]; 0.1 mg/kg i.p., p=0.06
  frequency of zone crossings: strong trend to decreasing the zone crossings
[8]; 0.1 mg/kg i.p., final 30 min of 60-min session, vs saline-treated Cm mutants, p=0.03
  total distance traveled: significantly decreased total distance traveled
[3]
  activity levels / hyperactivity of coloboma mice: reduces hyperactivity
[4]
  activity levels of wildtype mice: without affecting activity levels

## CCCCP(=O)(O)CCCN [ABPA, 3-aminopropyl-(n-butyl)-phosphinic acid]
[9]; 8 weeks, p=0.002 vs placebo (+9.4)
  mean reaction time, change compared to baseline: −19.7 milliseconds
[9]; Week 2, p=0.074 vs placebo
  reaction time vs baseline: Decreased reaction time
[9]; Week 5, p=0.070 vs placebo
  reaction time vs baseline: Decreased reaction time
[10]; Week 5, p=0.03 vs placebo (+15.0)
  mean hit latency, mean change from Baseline: -37.3 ms
[10]; Week 8, p=0.02 vs placebo (−5.9)
  mean hit latency, mean change from Baseline: -61.6 ms
[11]
  psychomotor speed: significant improvements in psychomotor speed
[8]; 0.3 mg/kg i.p., p=0.04, to within range of saline-treated wildtype
  frequency of zone crossings: significant decrease in the frequency of zone crossings
[8]; 0.3 mg/kg i.p., p=0.07
  total distance traveled / locomotor activity: strong trend to decreasing the activity
[8]; 3 mg/kg i.p., p=0.03
  total distance traveled / locomotor activity: significantly decreased locomotor activity levels
[8]; 3 mg/kg i.p., p=0.06
  frequency of zone crossings: strong trend to decreasing the zone crossings
[8]; 30 mg/kg i.p., p=0.03
  total distance traveled / locomotor activity: significantly decreased locomotor activity levels
[8]; 30 mg/kg i.p., p=0.04, to within range of saline-treated wildtype
  frequency of zone crossings: significant decrease in the frequency of zone crossings
[1]; 3 mg/kg i.p.
  locomotor activity of wildtype controls: no effect on the activity of wildtype controls
[1]; 30 mg/kg i.p.
  locomotor activity of wildtype controls: no effect on the activity of wildtype controls
[12]
  GABAC receptor antagonism: antagonize
